Measurements reported in patent US11834453B2, “Substituted pyrimido[5,4-d]pyrimidines as HER2 inhibitors” (Array BioPharma Inc., priority 2020, dated 2023).
Where two headings read alike, the source gives them in different places.

Tests used:
[1] = biological target: ErbB2 with Exon 20 YVMA insertion (HER2-YVMA) (Homo sapiens (Human), UniProt P04626, INS775YVMA); assay: Cellular phosphorylation assay, constitutive ErbB2 phosphorylation (Y1196) in engineered NIH 3T3 cells, Assay 4; assay type: cell-based
How it was run: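 In-cell Western in NIH 3T3 cells carrying ErbB2 exon 20 YVMA insertion, with no ligand stimulation. One hour compound exposure at 37 °C before fixation and anti-pY1196 plus GAPDH staining with dual-wavelength fluorescence. IC50 derived after GAPDH normalization.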

[2] = biological target: EGFR (Homo sapiens (Human), UniProt P00533); assay: ErbB enzyme assay (CisBio HTRF KinEASE-TK), Assay 3; assay type: biochemical
How it was run: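 IC50 was taken where a 4-parameter logistic fit crossed 50 percent of control (DMSO 100, pre-quenched 0), read by ratiometric HTRF. Reactions ran 30 min at 22 °C with 1 mM ATP and 250 nM TK-substrate biotin in pH 7.4 HEPES buffer with MgCl2, Triton X-100 and 2% DMSO.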

[3] = biological target: ErbB2 WT (Homo sapiens (Human), UniProt P04626); assay: ErbB enzyme assay (CisBio HTRF KinEASE-TK), Assay 2; assay type: biochemical
How it was run: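 Readout is HTRF KinEASE-TK, using Sa-XL665 and cryptate antibody for 1 h at 22 °C, as percent of control between DMSO-only (100) and pre-quenched (0) reactions. The kinase reaction runs 30 min at 22 °C with 1 mM ATP and 250 nM biotinylated TK substrate, in HEPES pH 7.4 with MgCl2 and 2% DMSO.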

[4] = biological target: ErbB2 insYVMA (HER2-YVMA, SEQ ID NO: 2) (Homo sapiens, UniProt P04626, INS775YVMA/P1170A); assay: biochemical; details: ErbB2 insYVMA enzyme assay
[5] = biological target: EGFR wild type (EGFR WT) (Homo sapiens (Human), UniProt P00533); assay: Cellular phosphorylation assay, EGF-stimulated EGFR phosphorylation in engineered NIH 3T3 cells, Phospho-EGFR DuoSet IC ELISA, Assay 5; assay type: cell-based
How it was run: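 Phospho-EGFR ELISA on lysates of engineered NIH 3T3 EGFR WT cells, IC50 derived from concentration curves. Cells plated at 20,000/well overnight, given compound dilutions 1 h at 37 °C, then rEGF 100 ng/ml for a further 10 min before lysis.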

Chain of ErbB2 with Exon 20 YVMA insertion (HER2-YVMA) (P04626 other isoform, or with tags, fused parts or gaps ins YVMA behind 775): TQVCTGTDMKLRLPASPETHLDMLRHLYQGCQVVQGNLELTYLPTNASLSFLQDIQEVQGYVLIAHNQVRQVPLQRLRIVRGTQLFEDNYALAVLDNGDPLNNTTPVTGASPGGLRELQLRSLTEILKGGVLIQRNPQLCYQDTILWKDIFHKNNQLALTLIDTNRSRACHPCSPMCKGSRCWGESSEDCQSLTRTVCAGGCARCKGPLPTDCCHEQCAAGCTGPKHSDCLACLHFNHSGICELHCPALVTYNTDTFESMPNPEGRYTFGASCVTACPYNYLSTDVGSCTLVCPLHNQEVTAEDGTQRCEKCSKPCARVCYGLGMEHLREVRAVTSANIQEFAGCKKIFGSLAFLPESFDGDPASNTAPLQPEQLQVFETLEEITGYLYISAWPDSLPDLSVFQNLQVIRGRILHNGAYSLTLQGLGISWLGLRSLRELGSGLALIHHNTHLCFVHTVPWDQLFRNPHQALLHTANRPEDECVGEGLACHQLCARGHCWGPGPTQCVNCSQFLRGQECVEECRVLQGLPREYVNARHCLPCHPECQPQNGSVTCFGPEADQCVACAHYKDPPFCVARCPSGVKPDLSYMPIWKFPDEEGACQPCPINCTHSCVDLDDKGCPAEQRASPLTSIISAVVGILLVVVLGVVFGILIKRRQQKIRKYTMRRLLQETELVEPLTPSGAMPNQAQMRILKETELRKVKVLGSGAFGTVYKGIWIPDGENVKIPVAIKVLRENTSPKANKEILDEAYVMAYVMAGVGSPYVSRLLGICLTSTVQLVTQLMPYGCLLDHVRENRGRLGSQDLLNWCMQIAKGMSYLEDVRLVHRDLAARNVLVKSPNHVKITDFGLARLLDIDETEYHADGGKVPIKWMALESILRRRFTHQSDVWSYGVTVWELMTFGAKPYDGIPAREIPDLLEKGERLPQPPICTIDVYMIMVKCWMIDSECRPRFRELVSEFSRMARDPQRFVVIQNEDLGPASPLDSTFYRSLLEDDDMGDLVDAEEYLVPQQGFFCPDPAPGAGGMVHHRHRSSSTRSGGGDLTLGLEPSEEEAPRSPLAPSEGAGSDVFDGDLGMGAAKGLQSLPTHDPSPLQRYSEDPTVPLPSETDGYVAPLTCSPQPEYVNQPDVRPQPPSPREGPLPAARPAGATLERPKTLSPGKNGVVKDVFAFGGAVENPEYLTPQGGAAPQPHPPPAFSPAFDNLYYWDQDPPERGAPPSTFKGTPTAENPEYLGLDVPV
Chain of ErbB2 WT (P04626 23-1255): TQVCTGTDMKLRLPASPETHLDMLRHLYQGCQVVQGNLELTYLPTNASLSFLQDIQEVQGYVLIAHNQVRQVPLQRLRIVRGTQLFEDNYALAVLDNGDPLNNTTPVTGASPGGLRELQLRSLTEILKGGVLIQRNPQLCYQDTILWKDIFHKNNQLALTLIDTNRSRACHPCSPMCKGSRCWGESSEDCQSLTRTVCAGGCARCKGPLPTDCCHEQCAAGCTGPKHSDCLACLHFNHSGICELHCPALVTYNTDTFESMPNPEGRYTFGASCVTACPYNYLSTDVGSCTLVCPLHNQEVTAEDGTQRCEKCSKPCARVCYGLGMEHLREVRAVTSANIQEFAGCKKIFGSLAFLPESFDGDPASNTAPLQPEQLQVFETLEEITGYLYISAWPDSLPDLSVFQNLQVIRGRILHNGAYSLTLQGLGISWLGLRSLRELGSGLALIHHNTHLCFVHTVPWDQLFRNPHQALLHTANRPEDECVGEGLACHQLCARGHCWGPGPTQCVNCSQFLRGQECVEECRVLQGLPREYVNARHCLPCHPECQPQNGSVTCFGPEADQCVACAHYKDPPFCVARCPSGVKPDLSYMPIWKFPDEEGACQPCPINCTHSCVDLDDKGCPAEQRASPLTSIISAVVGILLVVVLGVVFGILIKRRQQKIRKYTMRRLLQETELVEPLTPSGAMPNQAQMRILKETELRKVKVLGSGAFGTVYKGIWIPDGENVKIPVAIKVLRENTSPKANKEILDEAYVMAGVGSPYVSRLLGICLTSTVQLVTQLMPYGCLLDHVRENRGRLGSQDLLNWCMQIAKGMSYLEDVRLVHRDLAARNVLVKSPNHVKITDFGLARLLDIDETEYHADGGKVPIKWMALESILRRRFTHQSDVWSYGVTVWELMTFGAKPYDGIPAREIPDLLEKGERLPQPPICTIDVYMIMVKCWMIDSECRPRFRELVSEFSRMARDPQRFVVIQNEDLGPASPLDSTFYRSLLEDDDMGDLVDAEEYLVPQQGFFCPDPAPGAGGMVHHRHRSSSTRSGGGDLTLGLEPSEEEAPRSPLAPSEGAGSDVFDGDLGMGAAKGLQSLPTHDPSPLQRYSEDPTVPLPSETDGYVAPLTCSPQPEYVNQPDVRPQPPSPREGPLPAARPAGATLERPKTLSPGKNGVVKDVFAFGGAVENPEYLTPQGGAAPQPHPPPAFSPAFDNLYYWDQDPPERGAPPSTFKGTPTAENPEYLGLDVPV
Chain of ErbB2 insYVMA (HER2-YVMA, SEQ ID NO: 2) (P04626 with tags, fused parts or gaps INS775YVMA/P1170A limits assumed): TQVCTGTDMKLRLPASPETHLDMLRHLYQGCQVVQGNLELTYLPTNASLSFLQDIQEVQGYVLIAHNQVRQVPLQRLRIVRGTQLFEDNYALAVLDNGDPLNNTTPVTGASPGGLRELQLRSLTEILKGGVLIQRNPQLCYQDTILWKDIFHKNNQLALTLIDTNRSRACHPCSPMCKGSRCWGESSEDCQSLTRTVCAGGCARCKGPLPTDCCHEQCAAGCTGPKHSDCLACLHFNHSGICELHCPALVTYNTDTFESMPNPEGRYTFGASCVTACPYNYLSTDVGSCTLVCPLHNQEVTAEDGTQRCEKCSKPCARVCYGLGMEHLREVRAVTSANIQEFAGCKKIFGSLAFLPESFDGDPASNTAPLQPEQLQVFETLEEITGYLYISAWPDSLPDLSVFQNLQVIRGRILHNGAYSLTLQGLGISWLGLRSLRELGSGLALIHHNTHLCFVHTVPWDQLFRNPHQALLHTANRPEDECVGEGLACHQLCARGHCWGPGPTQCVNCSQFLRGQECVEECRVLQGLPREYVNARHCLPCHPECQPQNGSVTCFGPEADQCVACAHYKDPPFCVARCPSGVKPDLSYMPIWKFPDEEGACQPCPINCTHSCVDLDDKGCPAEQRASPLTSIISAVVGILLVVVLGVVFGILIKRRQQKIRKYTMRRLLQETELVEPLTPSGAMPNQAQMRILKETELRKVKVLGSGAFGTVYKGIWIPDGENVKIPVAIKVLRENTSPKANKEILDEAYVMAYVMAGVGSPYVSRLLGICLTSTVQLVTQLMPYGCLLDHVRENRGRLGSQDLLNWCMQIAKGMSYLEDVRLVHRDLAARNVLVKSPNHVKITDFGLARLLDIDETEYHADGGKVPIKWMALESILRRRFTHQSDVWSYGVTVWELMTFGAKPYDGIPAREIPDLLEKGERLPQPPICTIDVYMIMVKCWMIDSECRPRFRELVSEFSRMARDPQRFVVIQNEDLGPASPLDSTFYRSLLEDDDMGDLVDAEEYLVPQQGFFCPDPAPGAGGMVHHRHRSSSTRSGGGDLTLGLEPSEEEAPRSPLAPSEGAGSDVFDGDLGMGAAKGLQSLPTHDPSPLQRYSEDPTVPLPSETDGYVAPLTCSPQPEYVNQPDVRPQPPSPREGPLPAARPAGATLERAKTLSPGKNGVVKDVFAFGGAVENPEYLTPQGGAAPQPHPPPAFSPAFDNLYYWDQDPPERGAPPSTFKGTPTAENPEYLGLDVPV
Chain of EGFR (P00533 25-1210): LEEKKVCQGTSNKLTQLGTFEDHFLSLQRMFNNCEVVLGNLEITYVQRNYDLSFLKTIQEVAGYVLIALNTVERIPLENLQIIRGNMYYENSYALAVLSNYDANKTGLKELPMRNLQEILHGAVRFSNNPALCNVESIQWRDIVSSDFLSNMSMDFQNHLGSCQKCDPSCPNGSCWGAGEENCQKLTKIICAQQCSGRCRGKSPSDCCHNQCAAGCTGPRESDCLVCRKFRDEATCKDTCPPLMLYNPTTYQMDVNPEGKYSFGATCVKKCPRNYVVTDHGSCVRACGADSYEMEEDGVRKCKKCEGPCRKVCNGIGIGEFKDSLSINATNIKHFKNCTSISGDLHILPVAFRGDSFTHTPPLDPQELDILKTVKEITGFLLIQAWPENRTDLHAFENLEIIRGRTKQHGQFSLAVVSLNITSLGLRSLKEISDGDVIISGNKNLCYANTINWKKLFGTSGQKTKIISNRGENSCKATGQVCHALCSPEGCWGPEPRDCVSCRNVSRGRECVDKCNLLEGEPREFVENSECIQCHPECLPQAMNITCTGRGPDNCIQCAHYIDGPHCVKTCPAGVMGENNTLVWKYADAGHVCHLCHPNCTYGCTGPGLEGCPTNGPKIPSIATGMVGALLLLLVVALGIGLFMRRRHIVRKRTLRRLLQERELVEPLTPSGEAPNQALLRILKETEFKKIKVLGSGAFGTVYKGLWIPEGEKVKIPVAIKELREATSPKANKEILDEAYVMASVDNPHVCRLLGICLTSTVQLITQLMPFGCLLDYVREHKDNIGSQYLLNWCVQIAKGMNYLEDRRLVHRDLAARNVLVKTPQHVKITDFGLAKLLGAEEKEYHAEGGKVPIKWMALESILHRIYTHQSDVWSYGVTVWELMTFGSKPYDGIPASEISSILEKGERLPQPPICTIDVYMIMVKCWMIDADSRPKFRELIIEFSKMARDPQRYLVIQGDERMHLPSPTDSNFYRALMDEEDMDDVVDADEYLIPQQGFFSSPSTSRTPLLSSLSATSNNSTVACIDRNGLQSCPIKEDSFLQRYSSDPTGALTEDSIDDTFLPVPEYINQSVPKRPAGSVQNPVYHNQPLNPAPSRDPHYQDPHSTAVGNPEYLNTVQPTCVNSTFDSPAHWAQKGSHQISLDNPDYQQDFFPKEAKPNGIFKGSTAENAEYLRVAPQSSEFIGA

## Cc1ncc(-c2ncc3ncnc(Nc4ccc(Oc5ccc6c(c5)ncn6C)c(C)c4)c3n2)s1 [Example 42, N-(3-methyl-4-((1-methyl-1H-benzo[d]imidazol-5-yl)oxy)phenyl)-6-(2-methylthiazol-5-yl)pyrimido[5,4-d]pyrimidin-4-amine]
[1]
  IC50: 16.8 nM
[2]
  IC50: ≥ 10000 nM
[3]
  IC50: 176 nM
[4]; read-out: Assay 1 IC50
  IC50: 58.2 nM
[5]
  IC50: ≥ 5000 nM

## CNc1ncc2ncnc(Nc3ccc(Oc4ccc5csnc5c4)c(C)c3)c2n1 [Example 241]
[1]
  IC50: 244 nM
[2]
  IC50: 1640 nM
[3]
  IC50: 123 nM
[4]; read-out: Assay 1 IC50
  IC50: 28.3 nM
[5]
  IC50: ≥ 5000 nM

## Cc1c(Oc2ccc3c(c2)ncn3C)ccc(Nc2ncnc3cnc(N(C)C)nc23)c1F [Example 71, N8-(2-fluoro-3-methyl-4-((1-methyl-1H-benzo[d]imidazol-5-yl)oxy)phenyl)-N2,N2-dimethylpyrimido[5,4-d]pyrimidine-2,8-diamine 2,2,2-trifluoroacetate]
[1]
  IC50: 76.6 nM
[2]
  IC50: ≥ 10000 nM
[3]
  IC50: 299 nM
[4]; Assay 1 IC50 (nM)
  IC50: 70.2 nM
[5]
  IC50: ≥ 5000 nM

## Cc1c(Oc2ccn3ncnc3c2)ccc(Nc2ncnc3cnc(N[C@H]4CNC[C@H]4F)nc23)c1F [Example 318]
[1]
  IC50: 928 nM
[2]
  IC50: 4330 nM
[3]
  IC50: 88 nM
[4]; read-out: Assay 1 IC50
  IC50: 125 nM
[5]
  IC50: ≥ 5000 nM

## Cc1cc(Nc2ncnc3cnc(N4CCC45COC5)nc23)ccc1Oc1ccc2c(c1)ncn2C [Example 27, N-(3-methyl-4-((1-methyl-1H-benzo[d]imidazol-5-yl)oxy)phenyl)-6-(6-oxa-1-azaspiro[3.3]heptan-1-yl)pyrimido[5,4-d]pyrimidin-4-amine]
[1]
  IC50: 9.3 nM
[2]
  IC50: ≥ 10000 nM
[3]
  IC50: 50.8 nM
[4]; read-out: Assay 1 IC50
  IC50: 20 nM
[5]
  IC50: ≥ 5000 nM

## N#C[C@@H]1CCN(c2ncc3ncnc(Nc4ccc(Oc5ccn6ncnc6c5)c(Cl)c4)c3n2)C1 [Example 387]
[1]
  IC50: 163 nM
[2]
  IC50: ≥ 10000 nM
[3]
  IC50: 132 nM
[4]; read-out: Assay 1 IC50
  IC50: 70 nM
[5]
  IC50: ≥ 5000 nM

## CCOc1ncc2ncnc(Nc3ccc(Oc4ccc5scnc5c4)c(C)c3)c2n1 [Example 46, N-(4-(benzo[d]thiazol-5-yloxy)-3-methylphenyl)-6-ethoxpyrimido[5,4-d]pyrimidin-4-amine 2,2,2-trifluoroacetate]
[1]
  IC50: 566 nM
[2]
  IC50: 4250 nM
[3]
  IC50: 760 nM
[4]; read-out: Assay 1 IC50
  IC50: 95.2 nM
[5]
  IC50: ≥ 5000 nM

## Cc1cc(Nc2ncnc3cnc(N4CC5(CCN(C)C5=O)C4)nc23)ccc1Oc1ccc2c(c1)ncn2C [Example 425]
[1]
  IC50: 185 nM
[2]
  IC50: ≥ 10000 nM
[3]
  IC50: 495 nM
[4]; read-out: Assay 1 IC50
  IC50: 68.1 nM
[5]
  IC50: ≥ 5000 nM

## Cc1cc(Nc2ncnc3cnc(N4CCC[C@@]5(CCO5)C4)nc23)ccc1Oc1ccc2c(c1)ncn2C [Example 386]
[1]
  IC50: 16.7 nM
[2]
  IC50: 6990 nM
[3]
  IC50: 59.4 nM
[4]; read-out: Assay 1 IC50
  IC50: 82.1 nM
[5]
  IC50: ≥ 5000 nM

## Cc1cc(Nc2ncnc3cnc(N4CCOCC4)nc23)ccc1Oc1ccc2csnc2c1 [Example 243]
[1]
  IC50: 173 nM
[2]
  IC50: 2490 nM
[3]
  IC50: 264 nM
[4]; read-out: Assay 1 IC50
  IC50: 40.6 nM
[5]
  IC50: 3040 nM

## Cc1cc(Nc2ncnc3cnc(N4CCC[C@@H]4C(C)(C)O)nc23)ccc1Oc1ccc2c(c1)ncn2C [Example 371]
[1]
  IC50: 127 nM
[2]
  IC50: ≥ 10000 nM
[3]
  IC50: 492 nM
[4]; read-out: Assay 1 IC50
  IC50: 67 nM
[5]
  IC50: ≥ 5000 nM

## C[C@@H]1COCCN1c1ncc2ncnc(Nc3ccc(Oc4ccc5c(c4)ncn5C)c(Cl)c3)c2n1 [Example 144, (R)—N-(3-chloro-4-((1-methyl-1H-benzo[d]imidazol-5-yl)oxy)phenyl)-6-(3-methylmorpholino)pyrimido[5,4-d]pyrimidin-4-amine]
[1]
  IC50: 38.1 nM
[2]
  IC50: 6910 nM
[3]
  IC50: 78.2 nM
[4]; read-out: Assay 1 IC50
  IC50: 59.5 nM
[5]
  IC50: ≥ 5000 nM

## Cc1cc(Nc2ncnc3cnc(O[C@@H]4CNC[C@H](F)C4)nc23)ccc1Oc1ccc2c(c1)ncn2C [Example 295]
[1]
  IC50: 40.4 nM
[2]
  IC50: ≥ 10000 nM
[3]
  IC50: 552 nM
[4]; read-out: Assay 1 IC50
  IC50: 115 nM
[5]
  IC50: ≥ 5000 nM

## Cc1cc(Nc2ncnc3cnc(NC4CC(F)(F)C4)nc23)ccc1Oc1ccc2c(c1)ncn2C [Example 30, N2-(3,3-difluorocyclobutyl)-N8-(3-methyl-4-((1-methyl-1H-benzo[d]imidazol-5-yl)oxy)phenyl)pyrimido[5,4-d]pyrimidine-2,8-diamine]
[1]
  IC50: 165 nM
[2]
  IC50: ≥ 10000 nM
[3]
  IC50: 196 nM
[4]; read-out: Assay 1 IC50
  IC50: 104 nM
[5]
  IC50: ≥ 5000 nM

## Cc1cnc(-c2ncc3ncnc(Nc4ccc(Oc5ccc6c(c5)ncn6C)c(C)c4)c3n2)o1 [Example 231]
[1]
  IC50: 39.2 nM
[2]
  IC50: ≥ 10000 nM
[3]
  IC50: 274 nM
[4]; read-out: Assay 1 IC50
  IC50: 115 nM
[5]
  IC50: ≥ 5000 nM

## CN(CC(C)(C)O)c1ncc2ncnc(Nc3ccc(Oc4ccc5c(c4)ncn5C)c(Cl)c3)c2n1 [Example 456]
[1]
  IC50: 47.6 nM
[2]
  IC50: 4520 nM
[3]
  IC50: 69.8 nM
[4]; read-out: Assay 1 IC50
  IC50: 25.9 nM
[5]
  IC50: ≥ 5000 nM

## Cc1cc(Nc2ncnc3cnc(O[C@H]4CN(C)CC[C@@H]4F)nc23)ccc1Oc1ccc2c(c1)ncn2C [Example 296]
[1]
  IC50: 68.2 nM
[2]
  IC50: ≥ 10000 nM
[3]
  IC50: 141 nM
[4]; read-out: Assay 1 IC50
  IC50: 59.6 nM
[5]
  IC50: ≥ 5000 nM

## O[C@H]1C[C@H]2C[C@@H]1CN2c1ncc2ncnc(Nc3ccc(Oc4ccn5ncnc5c4)c(Cl)c3)c2n1 [Example 335]
[1]
  IC50: 143 nM
[2]
  IC50: 4110 nM
[3]
  IC50: 24.1 nM
[4]; read-out: Assay 1 IC50
  IC50: 15.7 nM
[5]
  IC50: ≥ 5000 nM

## Clc1cc(Nc2ncnc3cnc(N4C[C@@H]5[C@H](C4)[C@@H]4CC[C@H]5O4)nc23)ccc1Oc1ccn2ncnc2c1 [Example 399]
[1]
  IC50: 192 nM
[2]
  IC50: ≥ 10000 nM
[3]
  IC50: 29 nM
[4]; read-out: Assay 1 IC50
  IC50: 28.2 nM
[5]
  IC50: ≥ 5000 nM

## Cc1cc(Nc2ncnc3cnc(N(C)[C@H]4CN(C)C[C@H]4F)nc23)ccc1Oc1ccc2c(c1)ncn2C [Example 99, N2-((3S,4R)-4-fluoro-1-methylpyrrolidin-3-yl)-N2-methyl-N8-(3-methyl-4-((1-methyl-1H-benzo[d]imidazol-5-yl)oxy)phenyl)pyrimido[5,4-d]pyrimidine-2,8-diamine]
[1]
  IC50: 44.5 nM
[2]
  IC50: 6470 nM
[3]
  IC50: 18 nM
[4]; read-out: Assay 1 IC50
  IC50: 17.1 nM
[5]
  IC50: ≥ 5000 nM

## CC1(C)CN(c2ncc3ncnc(Nc4ccc(Oc5ccn6ncnc6c5)c(Cl)c4)c3n2)C[C@H]1O [Example 339]
[1]
  IC50: 587 nM
[2]
  IC50: 5240 nM
[3]
  IC50: 71.4 nM
[4]; read-out: Assay 1 IC50
  IC50: 47.2 nM
[5]
  IC50: ≥ 5000 nM

## Cc1cc(Nc2ncnc3cnc(OCC4(F)CNC4)nc23)ccc1Oc1ccc2c(c1)ncn2C [Example 291]
[1]
  IC50: 84.1 nM
[2]
  IC50: ≥ 10000 nM
[3]
  IC50: 446 nM
[4]; read-out: Assay 1 IC50
  IC50: 76.2 nM
[5]
  IC50: ≥ 5000 nM

## Cn1cnc2cc(Oc3ccc(Nc4ncnc5cnc(N6CCN(CC(F)F)CC6)nc45)cc3Cl)ccc21 [Example 484]
[1]
  IC50: 22.7 nM
[2]
  IC50: ≥ 10000 nM
[3]
  IC50: 124 nM
[4]; read-out: Assay 1 IC50
  IC50: 34.4 nM
[5]
  IC50: ≥ 5000 nM

## Cc1cc(Nc2ncnc3cnc(N4CCN(CC(F)F)CC4)nc23)ccc1Oc1ccc2c(c1)ncn2C [Example 477]
[1]
  IC50: 53.3 nM
[2]
  IC50: ≥ 10000 nM
[3]
  IC50: 47.1 nM
[4]; read-out: Assay 1 IC50
  IC50: 59.6 nM
[5]
  IC50: ≥ 5000 nM

## Clc1cc(Nc2ncnc3cnc(N4CC[C@@]5(CCOC5)C4)nc23)ccc1Oc1ccn2ncnc2c1 [Example 356]
[1]
  IC50: 270 nM
[2]
  IC50: ≥ 10000 nM
[3]
  IC50: 92.8 nM
[4]; read-out: Assay 1 IC50
  IC50: 36.1 nM
[5]
  IC50: ≥ 5000 nM
